Like-named read-outs stand apart in the source and are kept apart here.
Key:
[1] = tested on: HIV-1 (IIIB) in MT-4 cells; assay: MT-4 HIV assay; assay type: cell-based
Outline: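 MT-4 cells infected with HIV-1 IIIB (1:250 stock dilution) were incubated with 1:3 serially diluted compounds in RPMI with 10% FBS for 5 days at 37 °C. Cell Titer Glo luminescence was the readout. Plates included mock-infected wells, no-drug wells and 5 uM AZT controls.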

[2] = Outline: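 Dog, rat and human liver microsomes (0.5 mg/mL) with NADPH-regenerating cofactor; test compound 1 uM, duplicates. Timepoints 2, 12, 25, 45, 65 min; protein removed by centrifugation, supernatant analysed by LC/MS/MS. Clint from t1/2.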
[3] = Human immunodeficiency virus 1, MT4, 120 h, HIV-1 (IIIB), MT-4 cells, 5 days, Cell Titer Glo, read-out: EC50
[4] = human liver microsomes 0.5 mg/mL, 1 uM compound, NADPH
[5] = rat liver microsomes 0.5 mg/mL, 1 uM compound, NADPH
[6] = HIV-1 (IIIB), MT-4 cells, 5 days, Cell Titer Glo, read-out: EC50
[7] = Human immunodeficiency virus 1, MT4, 120 h

| Molecule | EC50 [1, 3] [nM] | Human Pred Cl. [2, 4] [L/H/kg] | Rat. Pred. Cl. [2, 5] [L/H/kg] | Human Pred Cl. ([2]; human, microsomes) [L/H/kg] | Rat. Pred. Cl. ([2]; rat, microsomes) [L/H/kg] | EC50 [1, 6] [nM] | EC50 [1, 7] [nM] |
| --- | --- | --- | --- | --- | --- | --- | --- |
| COC(=O)N[C@H](C(=O)N[C@@H](Cc1ccc(C#Cc2ccc(N3CCN(C4CCOCC4)CC3)nc2)cc1)[C@@H](O)CN(Cc1c(F)cc(-c2cnn(C(F)F)c2)cc1F)NC(=O)[C@@H](NC(=O)OC)C(C)(C)C(F)(F)F)C(C)(C)C(F)(F)F [Example 115, Methyl ((5S,8S,9S,14S)-11-(4-(1-(difluoromethyl)-1H-pyrazol-4-yl)-2,6-difluorobenzyl)-16,16,16-trifluoro-9-hydroxy-15,15-dimethyl-3,6,13-trioxo-8-(4-((6-(4-(tetrahydro-2H-pyran-4-yl)piperazin-1-yl)pyridin-3-yl)ethynyl)benzyl)-5-(1,1,1-trifluoro-2-methylpropan-2-yl)-2-oxa-4,7,11,12-tetraazahexadecan-14-yl)carbamate] | 3.19 | 0.12 | <0.18 |  |  |  |  |
| COC(=O)N[C@H](C(=O)N[C@@H](Cc1ccc(C#Cc2ccc(N3CC4CCC(C3)N4C3COC3)nc2)cc1)[C@@H](O)CN(Cc1c(F)cc(-c2ccc(C(F)F)cn2)cc1F)NC(=O)[C@@H](NC(=O)OC)C(C)(C)C(F)(F)F)C(C)(C)C(F)(F)F [Example 99, Methyl ((5S,8S,9S,14S)-11-(4-(5-(difluoromethyl)pyridin-2-yl)-2,6-difluorobenzyl)-16,16,16-trifluoro-9-hydroxy-15,15-dimethyl-8-(4-((6-(8-(oxetan-3-yl)-3,8-diazabicyclo [3.2.1]octan-3-yl)pyridin-3-yl)ethynyl)benzyl)-3,6,13-trioxo-5-(1,1,1-trifluoro-2-methylpropan-2-yl)-2-oxa-4,7,11,12-tetraazahexadecan-14-yl)carbamate] | 7.96 |  |  | <0.11 | 0.26 |  |  |
| Methyl ((5S,8S,9S,14S)-11-(2,6-difluoro-4-(1-methyl-1H-pyrazol-3-yl)benzyl)-16,16,16-trifluoro-9-hydroxy-15,15-dimethyl-8-(4-((6-(8-(oxetan-3-yl)-3,8-diazabicyclo[3.2.1]octan-3-yl)pyridin-3-yl)ethynyl)benzyl-3,6,13-trioxo-5-(1,1,1-trifluoro-2-methylpropan-2-yl)-2-oxa-4,7,11,12-tetraazahexadecan-14-yl)carbamate [Example 128] |  | 0.15 | 0.37 |  |  | 3.16 |  |
| COC(=O)N[C@H](C(=O)N[C@@H](Cc1ccc(C#Cc2ccc(N3C[C@H]4C[C@@H]3CN4C3COC3)nc2)cc1)[C@@H](O)CN(Cc1c(F)cc(-c2ccn(C3CC3)n2)cc1F)NC(=O)[C@@H](NC(=O)OC)C(C)(C)C(F)(F)F)C(C)(C)C(F)(F)F [Example 45, Methyl ((5S,8S,9S,14S)-11-(4-(1-cyclopropyl-1H-pyrazol-3-yl)-2,6-difluorobenzyl)-16,16,16-trifluoro-9-hydroxy-15,15-dimethyl-8-(4-((6-((1R,4R)-5-(oxetan-3-yl)-2,5-diazabicyclo[2.2.1]heptan-2-yl)pyridin-3-yl)ethynyl)benzyl)-3,6,13-trioxo-5-(1,1,1-trifluoro-2-methylpropan-2-yl)-2-oxa-4,7,11,12-tetraazahexadecan-14-yl)carbamate] |  | <0.11 | 0.92 |  |  |  | 2.56 |
| COC(=O)N[C@H](C(=O)N[C@@H](Cc1ccc(-c2ccn(CC(F)F)n2)cc1)[C@@H](O)CN(Cc1c(F)cc(-c2cnc(N3CC4CCC(C3)N4C3COC3)nc2)cc1F)NC(=O)[C@@H](NC(=O)OC)C(C)(C)C(F)(F)F)C(C)(C)C(F)(F)F [Example 212, Methyl ((5S,8S,9S,14S)-11-(2,6-difluoro-4-(2-(8-(oxetan-3-yl)-3,8-diazabicyclo[3.2.1]octan-3-yl)pyrimidin-5-yl)benzyl)-8-(4-(1-(2,2-difluoroethyl)-1H-pyrazol-3-yl)benzyl)-16,16,16-trifluoro-9-hydroxy-15,15-dimethyl-3,6,13-trioxo-5-(1,1,1-trifluoro-2-methylpropan-2-yl)-2-oxa-4,7,11,12-tetraazahexadecan-14-yl)carbamate] | 4.97 |  |  | 0.33 | 0.33 |  |  |
| COC(=O)N[C@H](C(=O)N[C@@H](Cc1ccc(-c2ccc(N3CC4CCC(C3)N4C3COC3)nc2)cc1)[C@@H](O)CN(Cc1c(F)cc(-c2ccn(CC(F)F)n2)cc1F)NC(=O)[C@@H](NC(=O)OC)C(C)(C)C(F)(F)F)C(C)(C)C(F)(F)F [Example 195, methyl ((5S,8S,9S,14S)-11-(4-(1-(2,2-difluoroethyl)-1H-pyrazol-3-yl)-2,6-difluorobenzyl)-16,16,16-trifluoro-9-hydroxy-15,15-dimethyl-8-(4-(6-(8-(oxetan-3-yl)-3,8-diazabicyclo[3.2.1]octan-3-yl)pyridin-3-yl)benzyl)-3,6,13-trioxo-5-(1,1,1-trifluoro-2-methylpropan-2-yl)-2-oxa-4,7,11,12-tetraazahexadecan-14-yl)carbamate] | 2.76 |  |  | 0.12 | 0.52 |  |  |
| COC(=O)N[C@H](C(=O)NN(Cc1c(F)cc(-c2ccn(C(F)F)n2)cc1F)C[C@H](O)[C@H](Cc1ccc(-c2cnn(C(F)F)c2)cc1)NC(=O)[C@@H](NC(=O)OC)C(C)(C)C(F)(F)F)C(C)(C)C [Example 218, Methyl ((5S,8S,9S,14S)-11-(4-(1-(difluoromethyl)-1H-pyrazol-3-yl)-2,6-difluorobenzyl)-8-(4-(1-(difluoromethyl)-H-pyrazol-4-yl)benzyl)-9-hydroxy-15,15-dimethyl-3,6,13-trioxo-5-(1,1,1-trifluoro-2-methylpropan-2-yl)-2-oxa-4,7,11,12-tetraazahexadecan-14-yl)carbamate] | 2.99 | 0.92 | 0.45 |  |  |  |  |
| COCCN1C2CCC1CN(c1ccc(C#Cc3ccc(C[C@H](NC(=O)[C@@H](NC(=O)OC)C(C)(C)C(F)(F)F)[C@@H](O)CN(Cc4c(F)cc(-c5ccn(C(F)F)n5)cc4F)NC(=O)[C@@H](NC(=O)OC)C(C)(C)C(F)(F)F)cc3)cn1)C2 [Example 124, Methyl ((5S,8S,9S,14S)-11-(4-(1-(difluoromethyl)-1H-pyrazol-3-yl)-2,6-difluorobenzyl)-16,16,16-trifluoro-9-hydroxy-8-(4-((6-(8-(2-methoxyethyl)-3,8-diazabicyclo[3.2.1]octan-3-yl)pyridin-3-yl)ethynyl)benzyl)-15,15-dimethyl-3,6,13-trioxo-5-(1,1,1-trifluoro-2-methylpropan-2-yl)-2-oxa-4,7,11,12-tetraazahexadecan-14-yl)carbamate] | 6.32 |  |  | <0.11 | 0.5 |  |  |
| COC(=O)N[C@H](C(=O)N[C@@H](Cc1ccc(C#Cc2cnc(N3CC4CCC(C3)N4C3COC3)nc2)cc1)[C@@H](O)CN(Cc1c(F)cc(-c2cn(C(F)F)cn2)cc1F)NC(=O)[C@@H](NC(=O)OC)C(C)(C)C(F)(F)F)C(C)(C)C(F)(F)F [Example 133, Methyl ((5S,10S,11S,14S)-8-(4-(1-(difluoromethyl)-1H-imidazol-4-yl)-2,6-difluorobenzyl)-16,16,16-trifluoro-10-hydroxy-15,15-dimethyl-11-(4-((2-(8-(oxetan-3-yl)-3,8-diazabicyclo[3.2.]octan-3-yl)pyrimidin-5-yl)ethynyl)benzyl)-3,6,13-trioxo-5-(1,1,1-trifluoro-2-methylpropan-2-yl)-2-oxa-4,7,8,12-tetraazahexadecan-14-yl)carbamate] |  | <0.11 | <0.18 |  |  | 3.44 |  |
| COC(=O)N[C@H](C(=O)N[C@@H](Cc1ccc(C#Cc2cnc(N3CC4CCC(C3)N4C3COC3)nc2)cc1)[C@@H](O)CN(Cc1c(F)cc(-c2ccn(C(F)F)n2)cc1F)NC(=O)[C@@H](NC(=O)OC)C(C)(C)C)C(C)(C)C [Example 121, Methyl ((5S,8S,9S,14S)-5-(tert-butyl)-11-(4-(1-(difluoromethyl)-1H-pyrazol-3-yl)-2,6-difluorobenzyl)-9-hydroxy-15,15-dimethyl-8-(4-((2-(8-(oxetan-3-yl)-3,8-diazabicyclo[3.2.1]octan-3-yl)pyrimidin-5-yl)ethynyl)benzyl)-3,6,13-trioxo-2-oxa-4,7,11,12-tetraazahexadecan-14-yl)carbamate] | 3.31 |  |  | <0.11 | <0.18 |  |  |
| COC(=O)N[C@H](C(=O)N[C@@H](Cc1ccc(C#Cc2ccc(N3CCN(C)C(=O)C3)nc2)cc1)[C@@H](O)CN(Cc1c(F)cc(-c2ccn(C(F)F)n2)cc1F)NC(=O)[C@@H](NC(=O)OC)C(C)(C)C(F)(F)F)C(C)(C)C(F)(F)F [Example 81, Methyl ((5S,8S,9S,14S)-11-(4-(1-(difluoromethyl)-1H-pyrazol-3-yl)-2,6-difluorobenzyl)-16,16,16-trifluoro-9-hydroxy-15,15-dimethyl-8-(4-((6-(4-methyl-3-oxopiperazin-1-yl)pyridin-3-yl)ethynyl)benzyl)-3,6,13-trioxo-5-(1,1,1-trifluoro-2-methylpropan-2-yl)-2-oxa-4,7,11,12-tetraazahexadecan-14-yl)carbamate] |  | <0.11 | 0.39 |  |  |  | 4.39 |

— patent US10294234B2, “HIV inhibitor compounds” (priority 2017, dated 2019)
